Measured values from ChEMBL document CHEMBL5346961, “Discovery and Evaluation of 3-Quinoxalin Urea Derivatives as Potent, Selective, and Orally Available ATM Inhibitors Combined with Chemotherapy for the Treatment of Cancer via Goal-Oriented Molecule Generation and Virtual Screening” (J Med Chem, 2023).
pIC50: −log10 of the molar value.

Key:
[1] = target: T1, Serine/threonine-protein kinase ATR (Homo sapiens, UniProt Q13535); assay: Inhibition of ATR (unknown origin) assessed as remaining activity at 1 uM in presence of [gamma33P-ATP] by radiometric assay
Target sequence in this assay (Q13535 whole entry, looked up): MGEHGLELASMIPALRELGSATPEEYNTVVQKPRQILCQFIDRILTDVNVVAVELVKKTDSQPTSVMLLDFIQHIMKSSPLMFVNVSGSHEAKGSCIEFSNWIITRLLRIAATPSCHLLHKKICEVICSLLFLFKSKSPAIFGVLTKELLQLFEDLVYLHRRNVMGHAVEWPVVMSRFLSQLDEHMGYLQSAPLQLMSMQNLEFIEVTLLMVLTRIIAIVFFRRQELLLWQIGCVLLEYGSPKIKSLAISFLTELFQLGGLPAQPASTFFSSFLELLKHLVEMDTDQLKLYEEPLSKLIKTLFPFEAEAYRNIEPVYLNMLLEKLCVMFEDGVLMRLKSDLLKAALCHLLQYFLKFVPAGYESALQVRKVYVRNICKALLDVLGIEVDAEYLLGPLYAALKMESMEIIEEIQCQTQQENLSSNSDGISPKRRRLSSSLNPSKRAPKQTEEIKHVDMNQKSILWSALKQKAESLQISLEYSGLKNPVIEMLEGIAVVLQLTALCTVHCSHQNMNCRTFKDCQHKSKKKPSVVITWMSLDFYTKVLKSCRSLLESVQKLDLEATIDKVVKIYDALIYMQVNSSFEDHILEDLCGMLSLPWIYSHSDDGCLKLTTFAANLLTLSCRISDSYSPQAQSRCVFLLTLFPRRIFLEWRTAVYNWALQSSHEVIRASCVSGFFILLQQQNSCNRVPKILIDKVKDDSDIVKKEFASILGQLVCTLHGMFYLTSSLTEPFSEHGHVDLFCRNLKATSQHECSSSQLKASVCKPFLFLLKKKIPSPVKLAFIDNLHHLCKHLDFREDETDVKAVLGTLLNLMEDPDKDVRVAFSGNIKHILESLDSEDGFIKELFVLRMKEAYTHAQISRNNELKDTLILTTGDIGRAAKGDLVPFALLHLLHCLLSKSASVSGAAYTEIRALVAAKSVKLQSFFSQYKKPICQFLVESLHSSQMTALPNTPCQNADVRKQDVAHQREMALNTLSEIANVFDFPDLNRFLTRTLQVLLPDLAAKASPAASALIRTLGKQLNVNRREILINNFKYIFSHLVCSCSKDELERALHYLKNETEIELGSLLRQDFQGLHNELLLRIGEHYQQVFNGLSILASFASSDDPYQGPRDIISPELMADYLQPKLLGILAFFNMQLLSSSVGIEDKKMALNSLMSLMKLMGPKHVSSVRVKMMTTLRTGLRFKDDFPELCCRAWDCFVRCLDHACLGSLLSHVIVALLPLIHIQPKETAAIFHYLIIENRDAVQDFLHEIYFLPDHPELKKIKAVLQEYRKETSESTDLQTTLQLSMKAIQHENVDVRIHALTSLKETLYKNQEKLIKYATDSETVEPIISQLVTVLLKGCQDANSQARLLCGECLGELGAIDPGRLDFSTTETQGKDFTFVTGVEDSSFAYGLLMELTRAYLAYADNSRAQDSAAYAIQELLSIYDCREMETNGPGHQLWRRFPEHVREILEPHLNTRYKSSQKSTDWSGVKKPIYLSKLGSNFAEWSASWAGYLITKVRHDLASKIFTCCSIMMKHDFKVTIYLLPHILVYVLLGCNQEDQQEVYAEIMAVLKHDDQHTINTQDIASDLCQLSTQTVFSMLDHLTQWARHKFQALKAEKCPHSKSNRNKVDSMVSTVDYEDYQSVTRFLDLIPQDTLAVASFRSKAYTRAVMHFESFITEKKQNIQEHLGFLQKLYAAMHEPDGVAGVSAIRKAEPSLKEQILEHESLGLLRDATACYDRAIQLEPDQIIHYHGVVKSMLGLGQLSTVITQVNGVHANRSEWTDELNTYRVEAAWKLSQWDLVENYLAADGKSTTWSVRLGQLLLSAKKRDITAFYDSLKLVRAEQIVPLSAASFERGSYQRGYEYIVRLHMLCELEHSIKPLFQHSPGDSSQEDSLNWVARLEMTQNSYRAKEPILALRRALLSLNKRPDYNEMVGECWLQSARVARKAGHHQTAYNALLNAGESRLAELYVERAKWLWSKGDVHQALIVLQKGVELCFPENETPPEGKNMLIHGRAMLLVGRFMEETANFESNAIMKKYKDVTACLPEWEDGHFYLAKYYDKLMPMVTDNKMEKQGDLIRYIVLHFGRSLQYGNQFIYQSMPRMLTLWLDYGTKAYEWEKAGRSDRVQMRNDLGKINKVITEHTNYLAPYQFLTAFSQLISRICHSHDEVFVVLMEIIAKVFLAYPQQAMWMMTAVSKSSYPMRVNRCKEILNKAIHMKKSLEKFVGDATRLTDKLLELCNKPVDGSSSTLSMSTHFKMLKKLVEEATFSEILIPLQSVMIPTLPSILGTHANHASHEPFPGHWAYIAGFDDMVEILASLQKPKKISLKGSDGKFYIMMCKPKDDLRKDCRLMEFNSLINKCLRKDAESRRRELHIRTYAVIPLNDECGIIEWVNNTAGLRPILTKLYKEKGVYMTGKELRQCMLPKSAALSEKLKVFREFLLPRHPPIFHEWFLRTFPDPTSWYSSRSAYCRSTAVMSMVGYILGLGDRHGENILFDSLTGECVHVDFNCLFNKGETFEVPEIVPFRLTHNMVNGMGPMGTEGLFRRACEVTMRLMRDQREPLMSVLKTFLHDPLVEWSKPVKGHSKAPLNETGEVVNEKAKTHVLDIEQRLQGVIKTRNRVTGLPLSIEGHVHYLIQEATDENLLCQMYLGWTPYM

[2] = target: T2, Serine-protein kinase ATM (Homo sapiens, UniProt Q13315); assay: Inhibition of ATM (unknown origin) assessed as remaining activity at 1 uM preincubated with compound for 30 mins followed by substrate addition and measured after 2 hrs by HTRF method relative to control; conditions: time 2.5 hrs
[3] = Metabolic stability in human liver microsomes assessed as clearance at 1 uM in presence of NADPH-regenerating system by LC-MS/MS analysis; assay type: ADME, Microsome
[4] = Metabolic stability in human liver microsomes assessed as half life at 1 uM in presence of NADPH-regenerating system by LC-MS/MS analysis; assay type: ADME, Microsome
[5] = Metabolic stability in human liver microsomes assessed as M1 metabolite formation at 1 uM in presence of NADPH-regenerating system by LC-MS/MS analysis; assay type: ADME, Microsome
[6] = target: T2, Serine-protein kinase ATM; assay: Inhibition of ATM (unknown origin) assessed as remaining activity at 0.01 uM preincubated with compound for 30 mins followed by substrate addition and measured after 2 hrs by HTRF method relative to control; conditions: time 2.5 hrs
[7] = target: T2, Serine-protein kinase ATM; assay: Inhibition of ATM (unknown origin) preincubated with compound for 30 mins followed by substrate addition and measured after 2 hrs by HTRF method
HCT-116 [8] = assay: Inhibition of colony formation in human HCT-116 cells at 0.01 uM preincubated for 1 hr followed by exposure to 2 Gy gamma irradiation and measured after 1 week by crystal violet staining based […] assay relative to control; assay type: functional; conditions: HCT-116, light or radiation study, time 169 hrs
HCT-116 [9] = assay: Inhibition of colony formation in human HCT-116 cells preincubated for 1 hr followed by exposure to 2 Gy gamma irradiation and measured after 1 week by crystal violet staining based […] assay; assay type: functional, cell-based; conditions: HCT-116, light or radiation study
HCT-116 [10] = assay: Antiproliferative activity against human HCT-116 cells assessed as cell survival at 1 uM incubated for 6 days by MTT assay relative to control; assay type: functional; conditions: HCT-116, 144 h, time 6 day, read-out: Survival
[11] = target: T1, Serine/threonine-protein kinase ATR; assay: Inhibition of flag tagged- ATR (unknown origin) expressed in Escherichia coli BL21 incubated for 20 mins in presence of ATP
Target sequence in this assay (Q13535 whole entry): as the sequence (Q13535 whole entry, looked up) above

[12] = Inhibition of PIK3 (unknown origin); parameters: species or system Homo sapiens
SW-620 = assay: Antiproliferative activity against human SW620 cells assessed as reduction in cell viability incubated for 6 days by MTT assay; assay type: functional, cell-based; conditions: SW-620, 144 h
MCF7 [13] = assay: Antiproliferative activity against human MCF7 cells assessed as reduction in cell viability incubated for 6 days by MTT assay; assay type: functional, cell-based; conditions: MCF7, 144 h
HCT-116 [14] = assay: Inhibition of colony formation in human HCT-116 cells assessed as assessed as fold change in IC50 in presence of ionizing radiation; assay type: functional
MCF7 [15] = assay: Synergistic antiproliferative activity against human MCF7 cells assessed as fold increase in etoposide IC50 at 200 nM measured after 6 days by MTT assay; assay type: functional; conditions: time 6 day
MCF7 [16] = assay: Synergistic antiproliferative activity against human MCF7 cells assessed as fold increase in irinotecan IC50 at 200 nM measured after 6 days by MTT assay; assay type: functional; conditions: time 6 day
MCF7 [17] = assay: Synergistic antiproliferative activity against human MCF7 cells assessed as combination index at […] measured after 6 days in presence etoposide by MTT assay; assay type: functional; conditions: dose lower 100 µM; time 6 day
MCF7 [18] = assay: Synergistic antiproliferative activity against human MCF7 cells assessed as combination index at […] measured after 6 days in presence irinotecan by MTT assay; assay type: functional; conditions: dose lower 100 µM; time 6 day

Row | SMILES | Activity [1] [%] | Activity [2] [%] | CLH [3] [mL/min/g] | half-life at 1 µM [4] [min] | Drug metabolism [5] | Activity [6] [%] | pIC50 [7] | inhibition at 0.01 µM (HCT-116 [8]) [%] | pIC50 (HCT-116 [9]) | viability at 1 µM (HCT-116 [10]) [%] | pIC50 [11] | pIC50 [12] | pIC50 (SW-620) | pIC50 (MCF7 [13]) | fold change (FC) (HCT-116 [14]) | fold change (FC) (MCF7 [15]) | fold change (FC) (MCF7 [16]) | CI (MCF7 [17]) | CI (MCF7 [18])
1 | CN(C)CCCOc1ccc(-c2ccc3ncc(NC(=O)NC4CCCCC4)nc3c2)cn1 | 102 | -5 | 293 | 5 | Metabolite_Detected | – | – | – | – | – | – | – | – | – | – | – | – | – | –
2 | CN(C)CCCOc1ccc(-c2ccc3ncc(N(C)C(=O)NC4CCCC4)nc3c2)cn1 | 100 | – | 64 | 22 | – | 2 | 9.00 | 91.9 | 8.81 | > 83 | – | – | – | – | – | – | – | – | –
3 | Cn1c(=O)n(-c2ccc(C(C)(C)C#N)cc2)c2c3cc(-c4cnc5ccccc5c4)ccc3ncc21 [DACTOLISIB] | – | – | – | – | – | – | – | – | – | – | 7.68 | 8.40 | – | – | – | – | – | – | –
4 | CN(C)CCCOc1ccc(-c2ccc3ncc(N(C)C(=O)NC4CCCCC4)nc3c2)cn1 | 94 | – | 94 | 15 | – | -1 | 9.05 | 99.6 | 9.27 | > 83 | – | – | – | – | – | – | – | – | –
5 | CCN(CC)CCCOc1ccc(-c2ccc3ncc(N(C)C(=O)NC(C)C)nc3c2)cn1 | – | -3 | 14 | 99 | – | 19 | 9.00 | 72.8 | 8.16 | > 83 | – | – | – | – | – | – | – | – | –
6 | CC(C)NC(=O)N(C)c1cnc2ccc(-c3ccc(OCCCN4CCCC4)nc3)cc2n1 | – | – | 5.2 | 267 | – | – | 8.76 | 83.8 | 8.75 | > 83 | – | – | < 5.05 | < 5.05 | 8284 | 3 | 13 | <1 | <1
7 | CN(C)CCCOc1ccc(-c2ccc3ncc(N(C)C(=O)Nc4ccccc4Cl)nc3c2)cn1 | 102 | – | 43 | 33 | – | 3 | 9.05 | 84.4 | 8.36 | > 83 | – | – | – | – | – | – | – | – | –
